This is an account of results in US6649355B2, “Lipoxygenase proteins and nucleic acids” (priority 1998, dated 2003).

For assay [1], the target named is T1, blood cell 15S-lipoxygenase (15-Lox-1) (Homo sapiens, UniProt P16050).
T1 construct: expressed in transfected cells
T1 sequence (P16050 1-662): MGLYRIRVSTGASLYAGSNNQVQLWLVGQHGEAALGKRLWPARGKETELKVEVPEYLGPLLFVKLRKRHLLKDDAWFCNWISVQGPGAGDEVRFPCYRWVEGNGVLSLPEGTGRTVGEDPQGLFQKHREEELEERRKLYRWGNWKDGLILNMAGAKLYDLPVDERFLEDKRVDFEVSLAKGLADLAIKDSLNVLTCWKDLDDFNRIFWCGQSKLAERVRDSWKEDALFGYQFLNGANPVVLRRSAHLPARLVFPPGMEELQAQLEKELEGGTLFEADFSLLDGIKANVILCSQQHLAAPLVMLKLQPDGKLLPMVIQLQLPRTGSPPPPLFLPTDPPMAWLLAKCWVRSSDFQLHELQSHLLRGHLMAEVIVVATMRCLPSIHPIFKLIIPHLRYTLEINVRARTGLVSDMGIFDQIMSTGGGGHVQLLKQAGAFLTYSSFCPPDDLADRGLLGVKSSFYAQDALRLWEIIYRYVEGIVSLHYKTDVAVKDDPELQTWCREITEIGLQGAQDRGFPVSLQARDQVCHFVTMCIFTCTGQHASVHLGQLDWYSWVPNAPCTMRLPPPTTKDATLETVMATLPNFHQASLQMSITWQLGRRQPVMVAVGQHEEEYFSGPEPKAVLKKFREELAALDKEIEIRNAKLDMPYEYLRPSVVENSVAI
Nature of the assay: Lipoxygenase metabolism of 14C substrates by the blood cell 15S-lipoxygenase analysed in the same experiments. The class given is biochemical. Particulars: applicants' experiments. An excerpt:
(§1) The PCR products corresponding to the open reading frame of the cDNA were subcloned into the pCDNA3 vector (Invitrogen), or in some experiments ligated directly into pCR3 (Invitrogen), and expressed by transient transfection in human embryonic kidney (HEK) 293 cells as described (Funk et al. (1996) J. Biol. Chem. 271, 23338-23344).

The target of assay [2] is T2, mouse 8S-lipoxygenase (8-Lox) (Mus musculus, UniProt O35936).
T2 sequence (O35936 1-677): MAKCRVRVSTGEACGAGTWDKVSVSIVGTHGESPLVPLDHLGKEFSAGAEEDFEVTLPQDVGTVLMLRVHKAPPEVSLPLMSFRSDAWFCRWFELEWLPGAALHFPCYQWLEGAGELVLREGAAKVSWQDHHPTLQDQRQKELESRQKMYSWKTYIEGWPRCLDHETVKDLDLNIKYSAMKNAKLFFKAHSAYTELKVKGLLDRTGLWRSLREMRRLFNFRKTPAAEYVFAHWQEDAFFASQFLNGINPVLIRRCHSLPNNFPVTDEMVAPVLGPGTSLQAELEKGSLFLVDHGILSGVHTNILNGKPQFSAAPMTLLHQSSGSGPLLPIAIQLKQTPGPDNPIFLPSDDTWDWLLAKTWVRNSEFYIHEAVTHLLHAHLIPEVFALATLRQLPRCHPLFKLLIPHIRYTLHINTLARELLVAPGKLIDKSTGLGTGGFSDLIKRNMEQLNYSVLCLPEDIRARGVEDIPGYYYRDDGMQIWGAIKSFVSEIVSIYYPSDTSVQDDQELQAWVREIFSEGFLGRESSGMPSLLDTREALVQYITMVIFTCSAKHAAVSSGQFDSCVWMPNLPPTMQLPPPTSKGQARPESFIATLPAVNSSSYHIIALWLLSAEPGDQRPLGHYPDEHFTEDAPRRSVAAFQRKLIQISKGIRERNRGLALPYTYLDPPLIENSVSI
The class given is biochemical.

Assay [3] addresses T3, 15-Lox-2 (second type of human 15S-lipoxygenase) (Homo sapiens, UniProt O15296, Q656R).
T3 construct: Initially, five full length clones were expressed in HEK 293 cells; expressed in transfected cells; host or cells: HEK 293 cells, transient transfection (pCDNA3 or pCR3); sonicated cells incubated with substrate
T3 sequence (O15296 1-676 Q656R): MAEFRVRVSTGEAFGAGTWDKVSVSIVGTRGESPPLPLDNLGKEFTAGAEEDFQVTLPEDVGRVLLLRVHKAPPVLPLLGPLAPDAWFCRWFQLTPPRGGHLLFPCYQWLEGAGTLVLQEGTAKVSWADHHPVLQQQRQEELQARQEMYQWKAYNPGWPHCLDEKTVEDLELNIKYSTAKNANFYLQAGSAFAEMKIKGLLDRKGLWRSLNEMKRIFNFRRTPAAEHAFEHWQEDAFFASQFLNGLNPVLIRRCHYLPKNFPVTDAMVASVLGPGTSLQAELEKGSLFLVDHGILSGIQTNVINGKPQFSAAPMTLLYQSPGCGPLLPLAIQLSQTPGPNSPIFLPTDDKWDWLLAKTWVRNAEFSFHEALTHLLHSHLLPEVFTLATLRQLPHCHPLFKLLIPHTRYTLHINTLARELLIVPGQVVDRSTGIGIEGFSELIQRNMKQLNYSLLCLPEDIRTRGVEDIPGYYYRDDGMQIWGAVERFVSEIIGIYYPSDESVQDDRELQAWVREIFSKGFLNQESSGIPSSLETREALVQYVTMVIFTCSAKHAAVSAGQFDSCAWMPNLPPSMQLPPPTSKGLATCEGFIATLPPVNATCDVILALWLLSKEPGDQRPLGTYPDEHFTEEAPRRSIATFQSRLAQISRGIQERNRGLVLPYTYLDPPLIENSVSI
Nature of the assay: Lipoxygenase metabolism of 14C substrates by the new 15S-lipoxygenase expressed in HEK 293 cells, HPLC analysis. The class given is biochemical. The conditions noted are these: 2 mM added; [14C]arachidonic acid as substrate.
Text: as §1

Assay [4] concerns 8S-lipoxygenase expression in mouse skin. Nature of the assay: Effect of topical phorbol ester on 8S-lipoxygenase expression in mouse skin (activity assay, Northern, Western, immunohistochemistry). It counts as in vivo. The conditions noted are these: for induction of 8S-lipoxygenase in skin: black Swiss mixed breed (outbred) pups, dorsal skin, topical. As to the method:
FIG. 9A: Normal-phase HPLC analysis of 8S-lipoxygenase activity in homogenates of back skin of 7-8-day-old black Swiss pups following 24 hr treatment with vehicle (acetone) or phorbol ester ([…]).
Phorbol ester (PMA, 10 nmol) dissolved in […] of acetone was applied topically onto dorsal skin of 6-7-day-old mice. At 21-24 h after PMA-treatment, the mice were euthanized, and epidermis was prepared from the frozen dorsal skin as previously described (Hughes et al. (1991) Biochim. Biophys. Acta 1081:347-354). The frozen epidermis was dropped into guanidinium thiocyanate solution, the lysis buffer from the RNeasy RNA extraction kit (QIAGEN). After a brief sonication using an ultrasonic probe (2 sec, twice), total RNA was extracted according to the manufacturer's instructions. Approximately […] of total RNA was recovered in […] of water. Twenty microliter aliquots were used in […] reactions for first strand cDNA synthesis using an oligo-dT-adaptor primer (Brash et al. (1996) J. Biol. Chem. 271:20949-20957). One microliter aliquots of CDNA were used directly in PCR reactions.
Poly(A)+RNA was prepared from PMA- or acetone-treated frozen dorsal skin using TRI REAGENT® (Molecular Research Center, Inc.) and Oligotex™ (Qiagen) according to the manufacturers' instructions. The poly(A)^+ RNA was electrophoresed in 1% agarose/formaldehyde gel and blotted to a Hybond-H^+ nylon membrane (Amersham). The membrane was hybridized with ^32P-labeled DNA probe (complementary with a 0.6-kb EcoRV/BamHI fragment of mouse epidermal 8S-lipoxygenase) prepared using the Multiprime DNA labeling kit and Rapid-hybridization buffer (Amersham), and then washed according to the manufacturer's specifications. Blots were exposed to Fuji x-ray film at −80° C. Mouse cyclophilin cDNA was used as a house-keeping gene to access loading of RNA.
After quantitation by Bradford assay (Bio-Rad), protein was separated by SDS polyacrylamide gel electrophoresis (SDS-PAGE) and then transferred electrophoretically to Hybond ECL nitrocellulose membranes (Amersham). These were probed using a rabbit polyclonal antibody raised against the human 15-Lox-2. This antibody recognises 15-Lox-2 and the mouse 8S-lipoxygenase, but not the human reticulocyte type of 15S-lipoxygenase, as more fully described below. Donkey anti-rabbit Ig linked with horseradish peroxidase (Amersham) was the secondary antibody. Specifically bound protein was detected by chemiluminescence using the ECL Western blotting detection reagents (Amersham).
The dorsal and tail skin of six to seven (6-7)-day-old mice were treated with acetone or PMA (10 nmol for dorsal skin, 2 nmol for tail skin). After 24 h, the animals were euthanized and the dorsal and tail skin were washed with soap and then rinsed thoroughly with water. […]

Assay [5] concerns peroxisome proliferator-activated receptor, PPAR-a. Particulars: cited from earlier work.

In the case of `CCCCC/C=C\C/C=C\CCCCCCCC(=O)O` [linoleic acid], the “extent of metabolism compared with arachidonic acid” value in assay [1] is “metabolized more extensively than arachidonic acid”. Further, the “product formed from the substrate” value in assay [2] was “exclusively to 9S-HODE”. For `CCCCC/C=C\C/C=C\C/C=C\C/C=C\CCCC(=O)O` [arachidonic acid], in assay [2], the “added arachidonic acid converted to 8S-HPETE” value is recorded as 30-40% and the “product formed from the substrate” value is reported as “exclusively to 8S-hydroperoxyeicosatetraenoic acid”. In the case of `[Ca+2]` [calcium], the “effect of addition to the incubation media on enzymatic activity” value in assay [3] is on record as “no significant effect”. Take `CCCCCCCCCCCCCC(=O)O[C@@H]1[C@@H](C)[C@@]2(O)[C@@H](C=C(CO)C[C@]3(O)C(=O)C(C)=C[C@@H]23)[C@@H]2C(C)(C)[C@]12OC(C)=O` [PMA, Phorbol-12-myristate-13-acetate]: the “induction of 8S-lipoxygenase activity in skin” value in assay [4] (Sencar strain, 6-10-day-old pups, high constitutive activity) is “little extra induction”. In addition, the “induction of 8S-lipoxygenase in skin” value in assay [4] (24 h) is on record as “strongly induced”; in assay [4] (24 h, listed as phorbol ester), “strong induction”. Also, in assay [4] (black Swiss, dorsal and tail skin, topical in acetone, 24 h), the “histological response of skin (epidermis)” value was “marked hyperproliferative response”. For the compound `Nc1ncnc2c1ncn2[C@@H]1O[C@H](COP(=O)(O)OP(=O)(O)OP(=O)(O)O)[C@@H](O)[C@H]1O` [ATP], the “effect of addition to the incubation media on enzymatic activity” value in assay [3] is recorded as “no significant effect”. For the compound `CCCCC/C=C\C/C=C\C=C\[C@@H](O)C/C=C\CCCC(=O)O` [8S-HETE], the “activity at PPAR-a” value in assay [5] is “strong activator”.
